Source: patent US8119683B2, “Aryl substituted sulfonamide compounds and their use as anticancer agents” (Taipei Medical University, priority 2009, dated 2012)

Key:
[1] = tested on: Human oral epidermoid carcinoma KB cells; assay: Cell growth inhibition assay (methylene blue dye), KB cells; format: cell-based; details: KB cells, bands, read-out: IC50, inhibiting proliferation of KB cells (band)
Description: Anticancer activities of the aryl substituted sulfonamide compounds synthesized in the above examples were evaluated by testing their inhibitory effects on mammalian cancer cell growth.
Human oral epidermoid carcinoma KB cells, non small cell lung carcinoma H460 cells, colorectal carcinoma HT29 cells, and stomach carcinoma MKN45 cells were maintained in RPMI-1640 medium supplied with 5% fetal bovine serum. The cells were treated with the test compound at various concentrations for 72 h.

| melting point [°C] | IC50 [1] [µM] | Compound |
| --- | --- | --- |
| 183.9 to 185.6 | 0.1 to 0.7 | COc1ccc(S(=O)(=O)N2CCc3cccc(-c4ccc(N)cc4)c32)cc1 [Compound 20, 4-[1-(4-methoxy-benzenesulfonyl)-2,3-dihydro-1H-indol-7-yl]-phenylamine] |
| 180.2 to 181.4 | 0.001 to 0.099 | COc1ccc(S(=O)(=O)N2CCc3cccc(-c4ccc(F)c(F)c4)c32)cc1 [Compound 21, 7-(3,4-difluoro-phenyl)-1-(4-methoxy-benzenesulfonyl)-2,3-dihydro-1H-indole] |
| 176.3 to 177.4 | 0.1 to 0.7 | COc1ccc(-c2cccc3c2N(S(=O)(=O)c2ccc(OC)cc2)CC3)cc1 [Compound 23, 1-(4-methoxy-benzenesulfonyl)-7-(4-methoxy-phenyl)-2,3-dihydro-1H-indole] |
| 139.8 to 141.7 | 0.1 to 0.7 | COc1ccc(S(=O)(=O)N2CCc3cccc(-c4ccc(F)nc4)c32)cc1 [Compound 25, 7-(6-fluoro-pyridin-3-yl)-1-(4-methoxy-benzenesulfonyl)-2,3-dihydro-1H-indole] |
| 179.4 to 180.5 | 0.1 to 0.7 | COc1ccc(S(=O)(=O)N2CCc3cccc(-c4ccc(O)cc4)c32)cc1 [Compound 26, 4-[1-(4-methoxy-benzenesulfonyl)-2,3-dihydro-1H-indol-7-yl]-phenol] |
| 178.1 to 179.4 | 0.001 to 0.099 | COc1ccc(S(=O)(=O)N2CCc3cccc(-c4ccc(F)cc4)c32)cc1 [Compound 28, 7-(4-fluoro-phenyl)-1-(4-methoxy-benzenesulfonyl)-2,3-dihydro-1H-indole] |
| 176.7 to 177.7 | 0.001 to 0.099 | COc1ccc(S(=O)(=O)N2CCc3cccc(-c4ccco4)c32)cc1 [Compound 29, 7-furan-2-yl-1-(4-methoxy-benzenesulfonyl)-2,3-dihydro-1H-indole] |
| 127.7 to 129.1 | 0.1 to 0.7 | COc1ccc(S(=O)(=O)N2CCc3cccc(-c4cccs4)c32)cc1 [Compound 30, 1-(4-methoxy-benzenesulfonyl)-7-thiophen-2-yl-2,3-dihydro-1H-indole] |
| 178.4 to 179.7 | 0.1 to 0.7 | COc1ccc(S(=O)(=O)N2CCc3cccc(-c4ccc(N(C)C)cc4)c32)cc1 [Compound 31, {4-[1-(4-methoxy-benzenesulfonyl)-2,3-dihydro-1H-indol-7-yl]-phenyl}-dimethyl-amine] |
| 177.1 to 178.3 | 0.1 to 0.7 | COc1ccc(S(=O)(=O)N2CCc3cccc(-c4ccc(Cl)cc4)c32)cc1 [Compound 33, 7-(4-chloro-phenyl)-1-(4-methoxy-benzenesulfonyl)-2,3-dihydro-1H-indole] |
| 179.7 to 181 | 0.1 to 0.7 | COc1ccc(S(=O)(=O)N2CCc3cccc(-c4ccc(C(F)(F)F)cc4)c32)cc1 [Compound 34, 1-(4-methoxy-benzenesulfonyl)-7-(4-trifluoromethyl-phenyl)-2,3-dihydro-1H-indole] |
| 180 to 181.3 | – | COc1ccc(S(=O)(=O)N2CCc3cccc(-c4cccc(F)c4)c32)cc1 [Compound 35, 7-(3-fluoro-phenyl)-1-(4-methoxy-benzenesulfonyl)-2,3-dihydro-1H-indole] |
| 195.1 to 197 | 0.001 to 0.099 | COc1ccc(S(=O)(=O)N2CCc3cccc(-c4ccccn4)c32)cc1 [Compound 36, 1-(4-methoxy-benzenesulfonyl)-7-pyridin-2-yl-2,3-dihydro-1H-indole] |
| 177.1 to 178.4 | 0.001 to 0.099 | COc1ccc(S(=O)(=O)N2CCc3cccc(-c4ccc([N+](=O)[O-])cc4)c32)cc1 [Compound 37, 1-(4-methoxy-benzenesulfonyl)-7-(4-nitro-phenyl)-2,3-dihydro-1H-indole] |
| 152 to 153 | 0.001 to 0.099 | COc1ccc(S(=O)(=O)N2CCc3cccc(-c4ccc(C=O)cc4)c32)cc1 [Compound 38, 4-[1-(4-methoxy-benzenesulfonyl)-2,3-dihydro-1H-indol-7-yl]-benzaldehyde] |
| 200 to 201 | – | COc1ccc(S(=O)(=O)N2CCc3cccc(-c4ccc(C=CC(=O)NO)cc4)c32)cc1 [Compound 41, N-hydroxy-3-{4-[1-(4-methoxy-benzenesulfonyl)-2,3-dihydro-1H-indol-7-yl]-phenyl}-acrylamide] |
| 188.7 to 190.2 | – | NS(=O)(=O)c1ccc(S(=O)(=O)N2CCc3cccc(-c4ccc(F)cc4)c32)cc1 [Compound 42, 4-[7-(4-fluoro-phenyl)-2,3-dihydro-indole-1-sulfonyl]-benzenesulfonamide] |
| 178.8 to 181 | – | COc1ccc(S(=O)(=O)N2CCc3cccc(-c4cccnc4)c32)cc1 [Compound 46, 1-(4-methoxy-benzenesulfonyl)-7-pyridin-3-yl-2,3-dihydro-1H-indole] |

Second part, the molecule before the results:

| Compound | melting point [°C] | IC50 [1] [µM] |
| --- | --- | --- |
| COc1ccc(S(=O)(=O)n2ccc3ccnc(Nc4ccccc4)c32)cc1 [Compound 1, [1-(4-methoxy-benzenesulfonyl)-1H-pyrrolo[2,3-c]pyridin-7-yl]-phenyl-amine] | 138.5 to 139.7 | – |
| COc1ccc(S(=O)(=O)n2ccc3ccnc(N(C)C)c32)cc1 [Compound 3, [1-(4-methoxy-benzenesulfonyl)-1H-pyrrolo[2,3-c]pyridin-7-yl]-dimethyl-amine] | 154.8 to 157.5 | – |
| COc1ccc(Nc2nccc3ccn(S(=O)(=O)c4ccc(OC)cc4)c23)cc1 [Compound 4, [1-(4-methoxy-benzenesulfonyl)-1H-pyrrolo[2,3-c]pyridin-7-yl]-(4-methoxy-phenyl)-amine] | 155.5 to 158.3 | – |
| COc1ccc(S(=O)(=O)n2ccc3ccnc(Nc4ccc(F)cc4)c32)cc1 [Compound 5, (4-fluoro-phenyl)-[1-(4-methoxy-benzenesulfonyl)-1H-pyrrolo[2,3-c]pyridin-7-yl]-amine] | 125.1 to 127.1 | – |
| COc1ccc(S(=O)(=O)n2ccc3ccnc(-c4ccccc4)c32)cc1 [Compound 6, 1-(4-methoxy-benzenesulfonyl)-7-phenyl-1H-pyrrolo[2,3-c]pyridine] | 148.9 to 151 | – |
| COC(=O)c1ccc(-c2nccc3ccn(S(=O)(=O)c4ccc(OC)cc4)c23)cc1 [Compound 7, 4-[1-(4-methoxy-benzenesulfonyl)-1H-pyrrolo[2,3-c]pyridin-7-yl]-benzoic acid methyl ester] | 143.5 to 146.5 | – |
| COc1ccc(S(=O)(=O)n2ccc3ccnc(-c4ccc(F)cc4)c32)cc1 [Compound 8, 7-(4-fluoro-phenyl)-1-(4-methoxy-benzenesulfonyl)-1H-pyrrolo[2,3-c]pyridine] | 136 to 137 | – |
| COc1ccc(S(=O)(=O)n2ccc3ccnc(-c4ccc(Cl)cc4)c32)cc1 [Compound 9, 7-(4-chloro-phenyl)-1-(4-methoxy-benzenesulfonyl)-1H-pyrrolo[2,3-c]pyridine] | 125.5 to 128.5 | – |
| COc1ccc(S(=O)(=O)n2ccc3ccnc(-c4ccc(O)cc4)c32)cc1 [Compound 10, 4-[1-(4-methoxy-benzenesulfonyl)-1H-pyrrolo[2,3-c]pyridin-7-yl]-phenol] | 179 to 182 | – |
| COc1ccc(-c2nccc3ccn(S(=O)(=O)c4ccc(OC)cc4)c23)cc1 [Compound 11, 1-(4-methoxy-benzenesulfonyl)-7-(4-methoxy-phenyl)-1H-pyrrolo[2,3-c]pyridine] | 162.8 to 164.8 | – |
| COc1ccc(S(=O)(=O)n2ccc3ccnc(-c4ccc(N(C)C)cc4)c32)cc1 [Compound 12, {4-[1-(4-methoxy-benzenesulfonyl)-1H-pyrrolo[2,3-c]pyridin-7-yl]-phenyl}-dimethyl-amine] | 111.5 to 114.5 | – |
| COc1ccc(S(=O)(=O)n2ccc3ccnc(-c4ccncc4)c32)cc1 [Compound 13, 1-(4-methoxy-benzenesulfonyl)-7-pyridin-4-yl-1H-pyrrolo[2,3-c]pyridine] | 193.1 to 194.3 | – |
| COc1ccc(S(=O)(=O)n2ccc3ccnc(-c4ccc([N+](=O)[O-])cc4)c32)cc1 [Compound 14, 1-(4-methoxy-benzenesulfonyl)-7-(4-nitro-phenyl)-1H-pyrrolo[2,3-c]pyridine] | 177.5 to 178.8 | – |
| COc1ccc(S(=O)(=O)n2ccc3ccnc(-c4ccc(C(F)(F)F)cc4)c32)cc1 [Compound 15, 1-(4-methoxy-benzenesulfonyl)-7-(4-trifluoromethyl-phenyl)-1H-pyrrolo[2,3-c]pyridine] | 143.1 to 144.9 | – |
| COc1ccc(S(=O)(=O)n2ccc3ccnc(-c4ccco4)c32)cc1 [Compound 16, 7-furan-2-yl-1-(4-methoxy-benzenesulfonyl)-1H-pyrrolo[2,3-c]pyridine] | 127.1 to 130.3 | – |
| COc1ccc(S(=O)(=O)n2ccc3cccc(-c4ccc(C#N)cc4)c32)cc1 [Compound 18, 4-[1-(4-methoxy-benzenesulfonyl)-1H-indol-7-yl]-benzonitrile] | 164.3 to 165.7 | – |
| COc1ccc(S(=O)(=O)n2ccc3cccc(-c4ccc(F)cc4)c32)cc1 [Compound 19, 7-(4-fluoro-phenyl)-1-(4-methoxy-benzenesulfonyl)-1H-indole] | 181.2 to 182.4 | – |
| COc1ccc(S(=O)(=O)N2CCc3cccc(-c4cc(OC)c(OC)c(OC)c4)c32)cc1 [Compound 32, 1-(4-methoxy-benzenesulfonyl)-7-(3,4,5-trimethoxy-phenyl)-2,3-dihydro-1H-indole] | 202.5 to 204.8 | – |
| NS(=O)(=O)c1ccc(S(=O)(=O)N2CCc3cccc(-c4ccncc4)c32)cc1 [Compound 43, 4-(7-pyridin-4-yl-2,3-dihydro-indole-1-sulfonyl)-benzenesulfonamide] | 241.7 to 242.9 | – |
| COc1ccc(S(=O)(=O)n2ccc3ccnc(-c4cccs4)c32)cc1 [Compound 44, 1-(4-methoxy-benzenesulfonyl)-7-thiophen-2-yl-1H-pyrrolo[2,3-c]pyridine] | 112.2 to 113.7 | – |
